This is an account of results in US12441703B2, “Carboxamides as modulators of sodium channels” (VERTEX PHARMACEUTICALS INCORPORATED, priority 2019, dated 2025).

Chain of human NaV 1.8 (Q9Y5Y9 whole entry, looked up, the tested form may be a part): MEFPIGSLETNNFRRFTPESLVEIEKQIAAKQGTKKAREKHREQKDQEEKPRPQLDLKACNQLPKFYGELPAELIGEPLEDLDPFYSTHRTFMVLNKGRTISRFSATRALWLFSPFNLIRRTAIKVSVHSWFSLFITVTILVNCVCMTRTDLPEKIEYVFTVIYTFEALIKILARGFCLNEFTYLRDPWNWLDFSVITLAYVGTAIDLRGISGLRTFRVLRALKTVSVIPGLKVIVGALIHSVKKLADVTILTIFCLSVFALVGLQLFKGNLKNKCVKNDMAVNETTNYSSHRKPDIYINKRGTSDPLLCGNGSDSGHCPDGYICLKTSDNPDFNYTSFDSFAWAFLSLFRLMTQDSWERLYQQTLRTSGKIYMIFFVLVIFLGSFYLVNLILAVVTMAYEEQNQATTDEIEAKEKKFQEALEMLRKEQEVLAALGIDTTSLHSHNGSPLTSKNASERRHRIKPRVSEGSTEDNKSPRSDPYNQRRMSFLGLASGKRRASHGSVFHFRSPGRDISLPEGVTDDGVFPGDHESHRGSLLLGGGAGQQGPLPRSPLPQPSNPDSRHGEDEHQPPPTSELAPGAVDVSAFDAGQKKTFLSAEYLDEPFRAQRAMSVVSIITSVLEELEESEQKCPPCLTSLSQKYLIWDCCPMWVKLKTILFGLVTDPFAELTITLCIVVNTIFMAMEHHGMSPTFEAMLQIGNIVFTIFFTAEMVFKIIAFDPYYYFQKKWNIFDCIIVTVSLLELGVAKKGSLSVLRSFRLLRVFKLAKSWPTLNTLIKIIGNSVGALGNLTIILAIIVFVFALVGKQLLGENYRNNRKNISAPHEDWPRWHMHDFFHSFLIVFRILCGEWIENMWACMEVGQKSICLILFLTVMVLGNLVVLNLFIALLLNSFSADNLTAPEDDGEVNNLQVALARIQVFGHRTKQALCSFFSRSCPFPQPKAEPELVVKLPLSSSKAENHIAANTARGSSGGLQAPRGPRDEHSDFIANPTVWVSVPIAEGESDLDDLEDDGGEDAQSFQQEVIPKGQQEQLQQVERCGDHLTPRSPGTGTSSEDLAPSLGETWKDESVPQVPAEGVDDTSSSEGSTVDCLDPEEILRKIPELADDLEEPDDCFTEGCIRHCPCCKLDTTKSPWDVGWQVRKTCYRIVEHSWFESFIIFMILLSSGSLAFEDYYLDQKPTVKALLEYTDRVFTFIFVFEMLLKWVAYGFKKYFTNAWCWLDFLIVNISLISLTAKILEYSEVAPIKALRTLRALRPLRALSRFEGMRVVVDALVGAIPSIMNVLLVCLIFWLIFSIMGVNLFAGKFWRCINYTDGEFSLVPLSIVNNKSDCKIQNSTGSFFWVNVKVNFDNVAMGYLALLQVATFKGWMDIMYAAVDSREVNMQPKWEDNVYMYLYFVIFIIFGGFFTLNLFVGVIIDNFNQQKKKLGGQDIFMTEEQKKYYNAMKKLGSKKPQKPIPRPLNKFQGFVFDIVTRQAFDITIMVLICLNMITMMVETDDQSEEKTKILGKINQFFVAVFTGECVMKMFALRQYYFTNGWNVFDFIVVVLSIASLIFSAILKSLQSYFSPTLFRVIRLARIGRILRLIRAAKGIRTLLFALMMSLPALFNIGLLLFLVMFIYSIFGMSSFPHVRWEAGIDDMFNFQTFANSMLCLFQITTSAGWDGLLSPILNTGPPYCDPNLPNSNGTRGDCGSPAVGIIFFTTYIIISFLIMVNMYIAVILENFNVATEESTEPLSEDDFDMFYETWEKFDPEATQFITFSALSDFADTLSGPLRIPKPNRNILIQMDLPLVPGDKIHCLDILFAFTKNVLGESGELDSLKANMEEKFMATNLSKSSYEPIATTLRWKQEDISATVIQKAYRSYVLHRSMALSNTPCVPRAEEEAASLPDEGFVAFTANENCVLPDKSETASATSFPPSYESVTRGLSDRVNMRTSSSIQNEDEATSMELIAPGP

The target of this experiment is human NaV 1.8 (Homo sapiens, UniProt Q9Y5Y9). The experiment is described as follows: E-VIPR assay for detecting and measuring NaV inhibition properties. The class given is cell-based. Conditions: E-VIPR assay conducted in the presence of human serum; HEK cells expressing truncated human NaV 1.8; read-out: IC50. The method, boiled down:
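Membrane-potential (coumarin/oxonol) readout after 10 s of 10 Hz biphasic electrical stimulation on E-VIPR. Compounds: 11-point 3-fold dilutions, […], 0.625% DMSO, 30 min at room temperature, human serum optional. Cells: HEK expressing truncated human NaV1.8 co-transduced with KIR2.1.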
Turning to `Cc1c(C(F)(F)F)ccc(Oc2ccc(OC(F)(F)F)cc2F)c1C(=O)Nc1ccnc(C(N)=O)c1` [Compound 128, 4-[[6-[2-fluoro-4-(trifluoromethoxy)phenoxy]-2-methyl-3-(trifluoromethyl)benzoyl]amino]pyridine-2-carboxamide], the IC50 (as a rule, the midpoint of a concentration-inhibition curve) worked out at 83 nM. `Cc1cc(F)ccc1Oc1ccc(C(F)(F)F)c(C)c1C(=O)Nc1ccnc(C(N)=O)c1` [Compound 129, 4-[[6-(4-fluoro-2-methyl-phenoxy)-2-methyl-3-(trifluoromethyl)benzoyl]amino]pyridine-2-carboxamide]: the IC50 worked out at 20 nM. Turning to `CCOc1ccc(Oc2ccc(C(F)(F)F)c(C)c2C(=O)Nc2ccnc(C(N)=O)c2)c(F)c1F` [Compound 130, 4-[[6-(4-ethoxy-2,3-difluoro-phenoxy)-2-methyl-3-(trifluoromethyl)benzoyl]amino]pyridine-2-carboxamide], the IC50 was found to be 40 nM.

As to `Cc1c(C(F)(F)F)ccc(Oc2ccc(F)cc2F)c1C(=O)Nc1ccnc(C(N)=O)c1` [Compound 131, 4-[[6-(2,4-difluorophenoxy)-2-methyl-3-(trifluoromethyl)benzoyl]amino]pyridine-2-carboxamide], the IC50 came out at 155 nM.

Regarding `Cc1c(C(F)(F)F)ccc(Oc2ccc(OC(C)C)cc2F)c1C(=O)Nc1ccnc(C(N)=O)c1` [Compound 132, 4-[[6-(2-fluoro-4-isopropoxy-phenoxy)-2-methyl-3-(trifluoromethyl)benzoyl]amino]pyridine-2-carboxamide], the IC50 was over 3000 nM. For `Cc1cc(OC(F)(F)F)ccc1Oc1ccc(C(F)(F)F)c(C)c1C(=O)Nc1ccnc(C(N)=O)c1` [Compound 133, 4-[[2-methyl-6-[2-methyl-4-(trifluoromethoxy)phenoxy]-3-(trifluoromethyl)benzoyl]amino]pyridine-2-carboxamide], the IC50 stood at 9 nM.

Take `COc1cc(Cl)ccc1Oc1ccc(C(F)(F)F)c(C)c1C(=O)Nc1ccnc(C(N)=O)c1` [Compound 134, 4-[[6-(4-chloro-2-methoxy-phenoxy)-2-methyl-3-(trifluoromethyl)benzoyl]amino]pyridine-2-carboxamide]: the IC50 amounted to 120 nM. Regarding `Cc1c(C(F)(F)F)ccc(Oc2ccc(Cl)cc2F)c1C(=O)Nc1ccnc(C(N)=O)c1` [Compound 135, 4-[[6-(4-chloro-2-fluoro-phenoxy)-2-methyl-3-(trifluoromethyl)benzoyl]amino]pyridine-2-carboxamide], the IC50 is 470 nM. As to `Cc1cc(Cl)ccc1Oc1ccc(C(F)(F)F)c(C)c1C(=O)Nc1ccnc(C(N)=O)c1` [Compound 136, 4-[[6-(4-chloro-2-methyl-phenoxy)-2-methyl-3-(trifluoromethyl)benzoyl]amino]pyridine-2-carboxamide], the IC50 was determined as 140 nM. In the case of `COc1cc(F)ccc1Oc1ccc(C(F)(F)F)c(C)c1C(=O)Nc1ccnc(C(N)=O)c1` [Compound 137, 4-[[6-(4-fluoro-2-methoxy-phenoxy)-2-methyl-3-(trifluoromethyl)benzoyl]amino]pyridine-2-carboxamide], the IC50 was 54 nM. For `Cc1c(C(F)(F)F)ccc(Oc2ccc(OC(F)(F)F)c(Cl)c2)c1C(=O)Nc1ccnc(C(N)=O)c1` [Compound 138, 4-[[6-[3-chloro-4-(trifluoromethoxy)phenoxy]-2-methyl-3-(trifluoromethyl)benzoyl]amino]pyridine-2-carboxamide], the IC50 amounted to 20 nM.

For `Cc1c(C(F)(F)F)ccc(Oc2ccc(OC(F)(F)F)c(F)c2)c1C(=O)Nc1ccnc(C(N)=O)c1` [Compound 139, 4-[[6-[3-fluoro-4-(trifluoromethoxy)phenoxy]-2-methyl-3-(trifluoromethyl)benzoyl]amino]pyridine-2-carboxamide], the IC50 came out at 33 nM. With `Cc1c(C(F)(F)F)ccc(Oc2ccc(F)c(F)c2F)c1C(=O)Nc1ccnc(C(N)=O)c1` [Compound 140, 4-[[2-methyl-3-(trifluoromethyl)-6-(2,3,4-trifluorophenoxy)benzoyl]amino]pyridine-2-carboxamide], the IC50 amounted to 68 nM. As for `Cc1c(F)ccc(Oc2ccc(C(F)(F)F)c(C)c2C(=O)Nc2ccnc(C(N)=O)c2)c1C` [Compound 141, 4-[[6-(4-fluoro-2,3-dimethyl-phenoxy)-2-methyl-3-(trifluoromethyl)benzoyl]amino]pyridine-2-carboxamide], the IC50 is 220 nM. For `Cc1cc(Cl)cc(Cl)c1Oc1ccc(C(F)(F)F)c(C)c1C(=O)Nc1ccnc(C(N)=O)c1` [Compound 142, 4-[[6-(2,4-dichloro-6-methyl-phenoxy)-2-methyl-3-(trifluoromethyl)benzoyl]amino]pyridine-2-carboxamide], the IC50 came out at 1700 nM. To `Cc1c(C(F)(F)F)ccc(Oc2c(F)cc(F)cc2F)c1C(=O)Nc1ccnc(C(N)=O)c1` [Compound 143, 4-[[2-methyl-3-(trifluoromethyl)-6-(2,4,6-trifluorophenoxy)benzoyl]amino]pyridine-2-carboxamide] belongs over 3000 nM. As to `Cc1cc(Cl)cc(C)c1Oc1ccc(C(F)(F)F)c(C)c1C(=O)Nc1ccnc(C(N)=O)c1` [Compound 144, 4-[[6-(4-chloro-2,6-dimethyl-phenoxy)-2-methyl-3-(trifluoromethyl)benzoyl]amino]pyridine-2-carboxamide], the IC50 turned out to be 765 nM.

Consider `COc1cc(C)cc(OC)c1Oc1ccc(C(F)(F)F)c(C)c1C(=O)Nc1ccnc(C(N)=O)c1` [Compound 145, 4-[[6-(2,6-dimethoxy-4-methyl-phenoxy)-2-methyl-3-(trifluoromethyl)benzoyl]amino]pyridine-2-carboxamide], for which the IC50 was over 3000 nM.

Turning to `Cc1c(C(F)(F)F)ccc(Oc2ccc(OC(F)(F)F)cc2Cl)c1C(=O)Nc1ccnc(C(N)=O)c1` [Compound 146, 4-[[6-[2-chloro-4-(trifluoromethoxy)phenoxy]-2-methyl-3-(trifluoromethyl)benzoyl]amino]pyridine-2-carboxamide], the IC50 turned out to be 17 nM. To `COc1c(Oc2ccc(C(F)(F)F)c(C)c2C(=O)Nc2ccnc(C(N)=O)c2)ccc(OC(F)(F)F)c1F` [Compound 147, 4-[[6-[3-fluoro-2-methoxy-4-(trifluoromethoxy)phenoxy]-2-methyl-3-(trifluoromethyl)benzoyl]amino]pyridine-2-carboxamide] belongs 3 nM; to `Cc1c(C(F)(F)F)ccc(Oc2ccc(OC(F)(F)F)cc2C2CC2)c1C(=O)Nc1ccnc(C(N)=O)c1` [Compound 148, 4-[[6-[2-cyclopropyl-4-(trifluoromethoxy)phenoxy]-2-methyl-3-(trifluoromethyl)benzoyl]amino]pyridine-2-carboxamide], 9 nM; to `Cc1c(Oc2ccc(C(F)(F)F)c(C)c2C(=O)Nc2ccnc(C(N)=O)c2)ccc(F)c1F` [Compound 149, 4-[[6-(3,4-difluoro-2-methyl-phenoxy)-2-methyl-3-(trifluoromethyl)benzoyl]amino]pyridine-2-carboxamide], 19 nM. To `COc1cc(OC(F)(F)F)ccc1Oc1ccc(C(F)(F)F)c(F)c1C(=O)Nc1cc[n+]([O-])c(C(N)=O)c1` [Compound 150, 4-[[2-fluoro-6-[2-methoxy-4-(trifluoromethoxy)phenoxy]-3-(trifluoromethyl)benzoyl]amino]-1-oxido-pyridin-1-ium-2-carboxamide] belongs 2 nM. With `COc1cc(OC(F)(F)F)ccc1Oc1ccc(C(F)(F)F)c(C)c1C(=O)Nc1ccnc(C(N)=O)c1` [Compound 151, 4-[[6-[2-methoxy-4-(trifluoromethoxy)phenoxy]-2-methyl-3-(trifluoromethyl)benzoyl]amino]pyridine-2-carboxamide], the IC50 was 4 nM.

Regarding `COc1cc(OC(F)(F)F)ccc1Oc1ccc(C(F)(F)F)c(C)c1C(=O)Nc1ccc(C(N)=O)nc1` [Compound 152], the IC50 stood at 12 nM.

In the case of `COc1cc(OC(F)(F)F)ccc1Oc1ccc(C(F)(F)F)c(C)c1C(=O)Nc1cc(C(N)=O)ncc1C` [Compound 153], the IC50 came out at 7 nM. In the case of `COc1cc(OC(F)(F)F)ccc1Oc1cc(-c2ccoc2)ccc1C(=O)Nc1ccnc(C(N)=O)c1` [Compound 154, 4-[[4-(3-furyl)-2-[2-methoxy-4-(trifluoromethoxy)phenoxy]benzoyl]amino]pyridine-2-carboxamide], the IC50 was determined as 988 nM. In the case of `COc1cc(OC(F)(F)F)ccc1Oc1cc(-c2ccc(Cl)cc2)ccc1C(=O)Nc1ccnc(C(N)=O)c1` [Compound 155, 4-[[4-(4-chlorophenyl)-2-[2-methoxy-4-(trifluoromethoxy)phenoxy]benzoyl]amino]pyridine-2-carboxamide], the IC50 is 505 nM. Turning to `COc1cc(OC(F)(F)F)ccc1Oc1cc(-c2ccc(F)cc2)ccc1C(=O)Nc1ccnc(C(N)=O)c1` [Compound 156, 4-[[4-(4-fluorophenyl)-2-[2-methoxy-4-(trifluoromethoxy)phenoxy]benzoyl]amino]pyridine-2-carboxamide], the IC50 amounted to 730 nM. Consider `COc1cc(OC(F)(F)F)ccc1Oc1cc(-c2ccc(C(F)(F)F)cc2)ccc1C(=O)Nc1ccnc(C(N)=O)c1` [Compound 157, 4-[[2-[2-methoxy-4-(trifluoromethoxy)phenoxy]-4-[4-(trifluoromethyl)phenyl]benzoyl]amino]pyridine-2-carboxamide], for which the IC50 is 408 nM.

Consider `COc1cc(F)ccc1Oc1cc(C(F)(F)F)ccc1C(=O)Nc1ccnc(C(N)=O)c1` [Compound 159, 4-[[2-(4-fluoro-2-methoxy-phenoxy)-4-(trifluoromethyl)benzoyl]amino]pyridine-2-carboxamide], for which the IC50 was over 3000 nM.

In the case of `CC(C)Oc1ccc(Oc2cc(C(F)(F)F)ccc2C(=O)Nc2ccnc(C(N)=O)c2)cc1F` [Compound 160, 4-[[2-(3-fluoro-4-isopropoxy-phenoxy)-4-(trifluoromethyl)benzoyl]amino]pyridine-2-carboxamide], the IC50 was over 3000 nM.

Turning to `NC(=O)c1cc(NC(=O)c2ccc(C(F)(F)F)cc2Oc2ccc(F)cc2Cl)ccn1` [Compound 161, 4-[[2-(2-chloro-4-fluoro-phenoxy)-4-(trifluoromethyl)benzoyl]amino]pyridine-2-carboxamide], the IC50 is over 3000 nM.
